Assay results reported in patent publication US20210213081A1, “COMPOSITION FOR PREVENTING, AMELIOREATING, OR TREATING STRESS OR DEPRESSION COMPRISING MEDICINAL HERB EXTRACT AS EFFECTIVE INGREDIENT” (KOREA INSTITUTE OF ORIENTAL MEDICINE, priority 2016, published 2021).

Columns and labels:
[1] = system: C57BL/6 mouse; experiment: Tail suspension test (TST) in immobility stress model; assay type: in vivo; conditions: immobility stress 22 days, 20 mg/kg oral daily, FIG. 6
Text: (§1) As a test animal, 7-week old male C57BL/6 mouse was used after obtaining it from Samtako Bio Korea. The test animals were acclimated for 7 days in the test animal research center, which is a specific pathogen-free facility of Korea Institute of Oriental Medicine. They were divided into the followings 6 groups in total: normal group not exposed to any stress (Control, n=16), stress control group applied with the stress only (Vehicle, n=16), positive control group applied with the stress and commercially available anti-depressant (Fluoxetine, n=16), and test groups applied with the stress and extract of Hibiscus syriacus root (100, 200, or 400 mg/kg, n=16). […]
The method by Can and others was used for the tail suspension test. […] Of total 6 minutes, the measurement was not carried out for initial 2 minutes as an acclimation period, while the immobile time of the test animal was measured for the last 4 minutes. […]

[2] = system: C57BL/6 mouse; experiment: Forced swimming test (FST) in immobility stress model; assay type: in vivo; conditions: immobility stress 22 days, 20 mg/kg oral daily, FIG. 5
Text: as §1
To measure the anti-depression effect of an extract of Hibiscus syriacus root, the forced swimming test was carried out, after the completion of the immobility stress test, by using the method of Porsolt, et. al. ([…]). […] Of total 6 minutes, the measurement was not carried out for initial 2 minutes as an acclimation period, while the immobile time of the test animal was measured for the last 4 minutes. […]

[3] = system: C57BL/6 mouse; experiment: Sucrose preference test (SPT) in immobility stress model; assay type: in vivo; conditions: immobility stress 22 days, 20 mg/kg oral daily, FIG. 4
Text: as §1, with “n=16). The test methods were reviewed by Test animal ethics committee of Korea Institute of Oriental Medicine (approval number: 15-102), and as for the breeding and maintenance of the test animals, the animals were placed in an IVC (individually ventilated cage) (5 animals per cage), which has been constantly maintained at temperature of 23±1° C., humidity of 50±10% or so, and light/dark period of 12 hours, based on the regulations for management and use of animals by the Test Animal Research Center of Korea Institute of Oriental Medicine.” for “n=16).”
The sucrose preference test was carried out on Day 1 of the test and after completion of the test. […] The intake preference was calculated as follows.

[4] = system: cortisol; experiment: Blood cortisol measurement after immobility stress (competitive enzyme immunoassay); assay type: in vivo; conditions: mouse blood serum, immobility stress 22 days, 20 mg/kg oral daily, FIG. 7
Text: as §1
(§2) Upon the completion of the test, the test animal was anesthetized, and blood was collected from the heart and centrifuged (1,000×g, 15 minutes) to obtain blood serum. […] Then, the absorbance at 405 nm was measured by using Micro Spectrophotometer (Molecular Device, Sunnyvale, Calif., USA).

[5] = system: serotonin; experiment: Blood serotonin measurement after immobility stress (competitive enzyme immunoassay); assay type: in vivo; conditions: mouse blood serum, immobility stress 22 days, 20 mg/kg oral daily, FIG. 8
Text: as §1
as §2, with “After adding the stop solution (50 μl),” for “Then,”

[6] = system: SK-N-SH cells; experiment: Activity of protecting nerve cells against corticosterone toxicity, MTS assay (cell proliferation); assay type: cell-based, human; conditions: 0.25 mM corticosterone for 1 hour, versus normal group
Protocol: SK-N-SH cells as human neuroblastoma cell line were obtained from Korean Cell Line Bank, cultured in DMEM (Dulbecco's modified Eagle's medium) medium containing 10% bovine serum and 1% penicillin/streptomycin (37° C., 5% CO2 incubator), and used. Once a cell monolayer is formed, the cells were treated with TrypLE 1× solution to release the cells followed by subculture.
Furthermore, based on the toxicity of corticosterone, the activity of protecting nerve cells in human blastoma was examined. Specifically, on a Corning BioCoat collagen I 96-well plate, SK-N-SH cells were sewn at 3×10^4/well. Thereafter, the cells were pre-treated for 24 hours with an extract of Hibiscus syriacus flower or Hibiscus syriacus root at a concentration of 10, 50, 100, or 200 μg/ml followed by a treatment with 0.25 mM corticosterone for 1 hour to induce oxidative stress. Then, MTS assay was carried out and, by measuring the absorbance using ELISA (enzyme-linked immunosorbent assay) plate reader, the cell proliferation was determined.
As a positive control, a treatment with 10 μM fluoxetine (Sigma, St. Louis, Mo., USA) was carried out instead of the treatment with an extract of Hibiscus syriacus flower or Hibiscus syriacus root.

Q: Which “immobile time in tail suspension test compared to control group (Vehicle)” value [1] does the source give for CNCCC(Oc1ccc(C(F)(F)F)cc1)c1ccccc1 (stereo not drawn) [Fluoxetine, fluoxetine] here?
A: decreased

Q: And the “immobile time in forced swimming test compared to control group (Vehicle)” value [2]?
A: decreased in significant sense

Q: What about the “sucrose intake amount compared to stress control group (Vehicle)” value [3] of the same compound?
A: increased in significant sense

Q: What about the “cortisol production in blood compared to control group (Vehicle)” value [4] of the same compound?
A: decreased in significant sense

Q: And the “serotonin production in blood compared to control group (Vehicle)” value [5]?
A: increased in significant sense

Q: With C[C@]12C[C@H](O)[C@H]3[C@@H](CCC4=CC(=O)CC[C@@]43C)[C@@H]1CC[C@@H]2C(=O)CO [corticosterone] as the compound, how does the “cells diminished by treatment with corticosterone” value [6] read?
A: ~50%
